Legend:
Assay in all cases: drug sensitivity score (DSS) from 5-point dose-response viability curve (DSS (area-under-curve based score)); higher = more sensitive (stronger growth inhibition or killing); extreme values may be limits of the assay
Settings in all cases: exposure time: 72 h; concentration range: 5 concentrations over 10,000-fold range
CAOV3 = tested on: CAOV3
In short: (§1)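 Viability of ovarian cancer and normal ovarian cell lines was read by CellTiter-Glo luminescence after 3 days at 37°C and 5% CO2 in 384-well plates holding 1,500 cells per well. Drugs had been dispensed in DMSO or water with an Echo 550 at five concentrations over a 10,000-fold range. Using Breeze software, a drug sensitivity score was assigned per cell line and drug, higher scores meaning more sensitive, and zero means no response.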

COV318 = tested on: COV318
In short: as §1

COV362 = tested on: COV362
In short: as §1

HOSE1C = tested on: HOSE1C
In short: as §1

HOSE2C = tested on: HOSE2C
In short: as §1

JHOS2 = tested on: JHOS2
In short: as §1

Kuramochi = tested on: Kuramochi
In short: as §1

OV90 = tested on: OV90
In short: as §1

OVCAR4 = tested on: OVCAR4
In short: as §1

OVCAR5 = tested on: OVCAR5
In short: as §1

OVCAR8 = tested on: OVCAR8
In short: as §1

Ovsaho = tested on: Ovsaho
In short: as §1

| SMILES | drug sensitivity score (CAOV3) | drug sensitivity score (COV318) | drug sensitivity score (COV362) | drug sensitivity score (HOSE1C) | drug sensitivity score (HOSE2C) | drug sensitivity score (JHOS2) | drug sensitivity score (Kuramochi) | drug sensitivity score (OV90) | drug sensitivity score (OVCAR4) | drug sensitivity score (OVCAR5) | drug sensitivity score (OVCAR8) | drug sensitivity score (Ovsaho) |
| --- | --- | --- | --- | --- | --- | --- | --- | --- | --- | --- | --- | --- |
| Cn1c(Nc2ccc(C(F)(F)F)cc2)nc2cc(Oc3ccnc(-c4ncc(C(F)(F)F)[nH]4)c3)ccc21 [NVP-RAF265] | 2.2 | 0 | 0 | 6.9 | 4.5 | 1.2 | 0 | 4.2 | 0.3 | 0.4 | 1.9 | 1.7 |
| CNC(=O)c1cccc(-c2ccc3c(N4CCOC[C@@H]4C)nc(N4CCOC[C@@H]4C)nc3n2)c1 [Vistusertib] | 10.2 | 10 | 2.8 | 14.5 | 10.3 | 7.7 | 11.5 | 15.1 | 11.5 | 13.3 | 10.2 | 15.4 |
| Cc1cc(Nc2ncnc3ccc(NC4=NC(C)(C)CO4)cc23)ccc1Oc1ccn2ncnc2c1 [Tucatinib] | 0 | 0 | 0 | 0 | 0 | 0 | 0 | 0 | 0 | 0 | 0 | 0 |
| NC(=O)c1cccc(-c2cccc(OC(=O)NC3CCCCC3)c2)c1 [URB597] | 0 | 0 | 0 | 0 | 0 | 0 | 0 | 0 | 0 | 0 | 0 | 0 |
| CN(C)C/C=C/C(=O)Nc1cc2c(Nc3ccc(F)c(Cl)c3)ncnc2cc1O[C@H]1CCOC1 [Afatinib] | 8.2 | 0 | 1.3 | 0 | 0 | 2.7 | 2.3 | 0 | 1 | 3.4 | 0.3 | 3.2 |
| CCN(CC)Cc1ccc2cc(COC(=O)Nc3ccc(C(=O)NO)cc3)ccc2c1 [Givinostat] | 7.3 | 4.2 | 2.2 | 12.3 | 8.6 | 5.3 | 6.2 | 7.7 | 4.1 | 10.8 | 10 | 3.2 |
| CCCCCCCCCCCCCCCCCCOP(=O)([O-])OC1CC[N+](C)(C)CC1 [Perifosine] | 0 | 0 | 0 | 0 | 0 | 0 | 0 | 0 | 0 | 0 | 0 | 0 |
| CN(c1ncccc1CNc1nc(Nc2ccc3c(c2)CC(=O)N3)ncc1C(F)(F)F)S(C)(=O)=O | 7.4 | 1.9 | 3.5 | 4.6 | 3.9 | 5.1 | 5.5 | 5.9 | 4.7 | 6.1 | 4.3 | 5.7 |
| CC(C)n1nc(-c2ccc3oc(N)nc3c2)c2c(N)ncnc21 [Sapanisertib] | 8.4 | 8.2 | 3.2 | 13 | 10.9 | 7.4 | 8.9 | 15.2 | 10.7 | 12.4 | 9.8 | 14.6 |
| O=C(O)CNC(=O)c1c(O)c2ccccc2n(Cc2ccccc2)c1=O [IOX-2] | 0 | 0 | 0 | 0.1 | 0 | 0 | 0 | 0 | 0 | 0 | 0 | 0 |
| C[C@H]1CN(C2COC2)CCN1c1ccc(Nc2cc(-c3ccnc(N4CCn5c(cc6c5CC(C)(C)C6)C4=O)c3CO)cn(C)c2=O)nc1 [GDC-0853] | 0 | 0 | 0 | 0 | 0 | 0 | 0 | 0 | 0 | 0 | 0 | 0 |
| COc1cc(Br)c(Nc2nc(-c3c(C)nc4ncccn34)cs2)c(Br)c1 [PTC-209] | 4.1 | 2.1 | 0.6 | 8.1 | 9.6 | 6.2 | 2.7 | 9.8 | 3.1 | 3.5 | 4.5 | 1.3 |
| Cc1ncc(Cl)cc1NCc1ccc(C(=O)N[C@@H](CC2CCCC2)C(=O)NC2CC2)s1 | 0 | 0 | 0 | 0 | 0 | 0 | 0.4 | 0.1 | 0 | 0 | 0 | 0 |
| Cc1nc(-c2cn3c(n2)-c2ccc(-c4cnn(C(C)(C)C(N)=O)c4)cc2OCC3)n(C(C)C)n1 [Taselisib] | 7.5 | 2.5 | 1.9 | 4.5 | 7.8 | 3.3 | 4.1 | 0.3 | 2.1 | 7.9 | 2.1 | 3.1 |
| Nc1nccc(-c2c(-c3ccc(F)cc3)ncn2C2CCCCC2)n1 | 1.7 | 0 | 0 | 1.6 | 0.9 | 0 | 0.1 | 0 | 0 | 1.9 | 0.7 | 0 |
| CNC(=O)CN1CCC(Oc2cc3c(Nc4cccc(Cl)c4F)ncnc3cc2OC)CC1 [Sapitinib] | 6.8 | 0 | 0 | 0 | 0 | 0 | 0 | 0 | 0 | 1.7 | 0 | 0.7 |
| CCS(=O)(=O)c1cccc(-c2cc(C(=O)NC3CCN(C)CC3)c(C)c3[nH]c4ncc(C)cc4c23)c1 [TAK-901] | 16.9 | 1.4 | 1.1 | 3.5 | 7.4 | 1.2 | 6.8 | 4.6 | 5.8 | 4.7 | 2.8 | 7.5 |
| CC(=O)[C@]1(O)Cc2c(O)c3c(c(O)c2[C@@H](O[C@H]2C[C@H](N)[C@H](O)[C@H](C)O2)C1)C(=O)c1ccccc1C3=O [Idarubicin] | 12 | 6.1 | 4.8 | 14.2 | 13.7 | 7.1 | 5.1 | 10.7 | 6.3 | 7.7 | 10.3 | 11.7 |
| CC(O)(CS(=O)(=O)c1ccc(F)cc1)C(=O)Nc1ccc(C#N)c(C(F)(F)F)c1 (stereo not given) [Bicalutamide] | 0 | 0 | 0 | 8.4 | 0 | 0 | 0.2 | 0 | 0.5 | 0.7 | 0.3 | 0 |
| C=CC(=O)Nc1cc2c(Nc3ccc(F)c(Cl)c3)ncnc2cc1OCCCN1CCOCC1 [Canertinib] | 13.2 | 4.3 | 5.9 | 8.4 | 8.2 | 7.5 | 8 | 7.3 | 7.7 | 8 | 8.4 | 8.3 |
| C[C@H]1CNCCCN1S(=O)(=O)c1cccc2cncc(F)c12 [Ripasudil] | 0 | 0 | 0 | 2 | 0.6 | 0 | 0 | 0 | 0 | 0 | 0 | 0 |
| CC(C)C[C@H](NC(=O)[C@H](CCc1ccccc1)NC(=O)CN1CCOCC1)C(=O)N[C@@H](Cc1ccccc1)C(=O)N[C@@H](CC(C)C)C(=O)[C@@]1(C)CO1 [Carfilzomib] | 24.6 | 26.5 | 20.2 | 27.4 | 28.4 | 25.5 | 12.4 | 27.6 | 23.4 | 24 | 21.5 | 28.4 |
| CN1CCN(c2nc(C3=C(c4c[nH]c5ccccc45)C(=O)NC3=O)c3ccccc3n2)CC1 [Sotrastaurin] | 1.2 | 0 | 1.5 | 0 | 0 | 0.2 | 0 | 0 | 0 | 0 | 0.1 | 0 |
| O=C1c2c(O)ccc(O)c2C(=O)c2c(NCCNCCO)ccc(NCCNCCO)c21 [Mitoxantrone] | 13 | 3.9 | 4 | 12.5 | 12.8 | 6.2 | 3.2 | 5.9 | 4.2 | 6.1 | 9.2 | 6.5 |
| COc1cc(N2CCC(N3CCN(C)CC3)CC2)ccc1Nc1ncnc(Nc2ccccc2S(=O)(=O)C(C)C)n1 [ASP3026] | 6.6 | 2.9 | 3.3 | 3.4 | 6.4 | 4.1 | 4 | 5.2 | 4.3 | 8.2 | 4.3 | 4.7 |
| C=C1C[C@@H]2CC[C@@]34C[C@H]5O[C@H]6[C@@H](O3)[C@H]3O[C@H](CC[C@@H]3O[C@H]6[C@H]5O4)CC(=O)C[C@@H]3[C@@H](OC)[C@@H](C[C@H](O)CN)O[C@H]3C[C@H]3O[C@@H](CC[C@@H]1O2)C[C@@H](C)C3=C [Eribulin] | 25.8 | 4.2 | 7.9 | 25.8 | 24.3 | 9.1 | 12.9 | 20.3 | 6.3 | 20.5 | 24 | 12 |
| COc1ccc(COc2cc3oc(=O)c4cc(C(C)O)ccc4c3cc2OC)cc1 (stereo not given) [Palomid-529] | 0 | 1.2 | 0 | 0 | 0 | 0 | 0.1 | 0.8 | 0.6 | 0 | 0 | 0.1 |
| C[C@H](Nc1ncnc2nc[nH]c12)c1cc2cccc(Cl)c2c(=O)n1-c1ccccc1 [Duvelisib] | 0.1 | 0 | 0 | 0.2 | 0 | 0 | 2 | 0 | 0.7 | 0 | 0 | 1.4 |
| CO[C@@H](C)Cn1c(=O)n(C)c2cnc3ccc(-c4cncc(C(C)(C)O)c4)cc3c21 | 9.2 | 6.8 | 3.8 | 15.1 | 9.9 | 7.8 | 8.3 | 11.9 | 9.8 | 8.7 | 9.5 | 10.9 |
| O=S(=O)(c1cccc2c(O)nccc12)N1CCCNCC1 [Hydroxyfasudil] | 0 | 0.1 | 0 | 0 | 0 | 0.4 | 0 | 0 | 0 | 0 | 0 | 0 |
